The values that follow come from patent US8119633B2, “Substituted sulfonamide compounds” (Gruenenthal GmbH, priority 2007, dated 2012).

The target in assay [1] is T1, bradykinin receptor 1 (B1R) of the rat (Rattus norvegicus, UniProt P97583).
T1 construct: expressed in transfected cells; host or cells: CHO K1 cells
T1 sequence (P97583 1-337): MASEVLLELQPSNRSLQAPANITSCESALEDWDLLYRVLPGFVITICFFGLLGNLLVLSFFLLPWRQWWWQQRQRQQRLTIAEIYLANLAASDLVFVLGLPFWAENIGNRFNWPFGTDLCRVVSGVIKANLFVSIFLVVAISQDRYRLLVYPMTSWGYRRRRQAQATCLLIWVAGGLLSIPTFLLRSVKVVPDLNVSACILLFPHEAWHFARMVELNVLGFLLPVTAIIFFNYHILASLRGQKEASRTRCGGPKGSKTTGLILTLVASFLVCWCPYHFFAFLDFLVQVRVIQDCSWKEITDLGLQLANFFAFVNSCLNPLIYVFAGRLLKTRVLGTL
In words: Functional study on the bradykinin receptor 1 (B1R), rat: FLIPR Ca2+ influx assay. Conditions: test substance 10 μM, CHO K1 cells transfected with rat B1R, Des-Arg9-bradykinin at EC80, Ca2+ influx (Fluo-4, FLIPR); for inhibition at 10 µM: read-out: B1R antagonism, rat [10 μM] % inhibition. Type of assay: cell-based. The method, boiled down:
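CHO K1 cells stably expressing rat B1R, Fluo-4-loaded, read on FLIPR (ex 488/em 540 nm, peak fluorescence). Test substances added first (agonism vs 10 μM Des-Arg9-bradykinin), then after 10-20 min Des-Arg9-bradykinin at EC80; % inhibition and IC50 from concentration series, n=2-3, N≥2.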

In assay [2] the target is T2, human μ-opiate receptor (Homo sapiens, UniProt P35372).
T2 construct: purchased PerkinElmer Life Sciences, Zaventem, Belgium RB-HOM; host or cells: CHO-K1 cells (membrane preparation)
In words: Affinity for the human μ-opiate receptor ([3H]-naloxone displacement, SPA). Conditions: test substance 1 μmol/l, inhibition of specific [3H]-naloxone binding, CHO-K1 receptor membrane preparation; for inhibition at 1 µM: read-out: μ-Opioid receptor [1 μM] % inhibition. The procedure:
Studies of the Effectiveness of the Compounds According to the Invention Method for determining the affinity for the human μ-opiate receptor
The receptor affinity for the human μ-opiate receptor is determined in a homogeneous batch on microtitre plates. To this end, serial dilutions of the substances to be tested are incubated for 90 minutes at room temperature with a receptor membrane preparation (15-40 μg of protein/250 μl of incubation batch) of CHO-K1 cells, which express the human μ-opiate receptor (RB-HOM receptor membrane preparation from PerkinElmer Life Sciences, Zaventem, Belgium), in the presence of 1 nmol/l of the radioactive ligand [^3H]-naloxone (NET719, PerkinElmer Life Sciences, Zaventem, Belgium) and 1 mg of WGA-SPA beads (wheatgerm agglutinin SPA beads from Amersham/Pharmacia, Freiburg, Germany) in a total volume of 250 μl. The incubation buffer used is 50 mmol/l of Tris-HCl supplemented with 0.06 wt. % bovine serum albumin. In order to determine non-specific binding, 100 μmol/l of naloxone is additionally added. When the ninety-minute incubation time has ended, the microtitre plates are centrifuged off for 20 minutes at 1000 g and the radioactivity is measured in a β-counter (Microbeta-Trilux, PerkinElmer Wallac, Freiburg, Germany). The percentage displacement of the radioactive ligand from its binding to the human μ-opiate receptor at a concentration of the test substances of 1 μmol/l is determined and stated as the percentage inhibition of specific binding. On the basis of the percentage displacement by different concentrations of the test substances, IC50 inhibitory concentrations, which effect 50% displacement of the radioactive ligand, are calculated. Ki values for the test substances are obtained by conversion by means of the Cheng-Prusoff equation.

Assay [3] concerns the target T3, human bradykinin receptor 1 (B1R) (Homo sapiens, UniProt P46663).
T3 construct: expressed in transfected cells; host or cells: CHO K1 cells
T3 sequence (P46663 1-353): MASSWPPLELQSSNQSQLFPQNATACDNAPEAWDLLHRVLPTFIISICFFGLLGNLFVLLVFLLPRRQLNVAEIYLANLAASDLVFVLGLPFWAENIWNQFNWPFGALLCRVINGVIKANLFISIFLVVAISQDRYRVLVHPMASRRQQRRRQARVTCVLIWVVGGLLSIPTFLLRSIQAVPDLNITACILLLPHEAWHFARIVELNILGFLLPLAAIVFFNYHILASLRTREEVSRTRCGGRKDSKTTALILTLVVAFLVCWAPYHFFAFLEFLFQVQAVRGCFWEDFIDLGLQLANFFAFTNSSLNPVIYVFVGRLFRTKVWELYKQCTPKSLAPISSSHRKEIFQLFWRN
Briefly: Functional study on the bradykinin receptor 1 (B1R), human: FLIPR Ca2+ influx assay. Type of assay: cell-based. Conditions: test substance 10 μM, CHO K1 cells transfected with human B1R, Lys-Des-Arg9-bradykinin at EC80, Ca2+ influx (Fluo-4, FLIPR); for inhibition at 10 µM: read-out: B1R antagonism, human [10 μM] % inhibition. Summed up: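 CHO K1 cells stably expressing human B1R were loaded with Fluo-4, and Ca2+ fluorescence was read on FLIPR (ex 488/em 540 nm). Compound was added first (10 μM for % activation against Lys-Des-Arg9-bradykinin ≥0.5 nM). After 10-20 min, Lys-Des-Arg9-bradykinin was added at EC80 for % inhibition; IC50 came from concentration series, n=2-3, N≥2.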

T2 sequence (P35372 whole entry): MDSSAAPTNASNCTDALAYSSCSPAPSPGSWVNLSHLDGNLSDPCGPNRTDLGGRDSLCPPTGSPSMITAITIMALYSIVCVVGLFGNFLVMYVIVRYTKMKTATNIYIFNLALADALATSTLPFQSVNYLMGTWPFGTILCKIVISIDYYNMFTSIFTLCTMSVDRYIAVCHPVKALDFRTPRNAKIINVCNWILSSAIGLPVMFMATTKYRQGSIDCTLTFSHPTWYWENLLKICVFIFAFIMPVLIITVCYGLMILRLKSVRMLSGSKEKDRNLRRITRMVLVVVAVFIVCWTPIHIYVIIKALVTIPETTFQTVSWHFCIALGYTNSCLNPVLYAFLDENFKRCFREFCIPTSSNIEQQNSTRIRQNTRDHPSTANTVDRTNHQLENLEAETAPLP

As a reminder, the inhibition is the drop in the measured response relative to a control, in per cent. With `O=C(CC1C(=O)NCCN1S(=O)(=O)c1ccc(Cl)cc1Cl)NC1CCC(C(CCc2ccccc2)N2CCCCC2)CC1` (stereo not drawn) [Example 59, 2-[1-(2,4-dichloro-benzenesulfonyl)-3-oxo-piperazin-2-yl]-N-[4-(3-phenyl-1-piperidin-1-yl-propyl)-cyclohexyl]-acetamide], the figures for the inhibition at 10 µM in assay [1] and in assay [3] were 27% and 104%, respectively. The inhibition at 1 µM in assay [2] was determined as 61%.
Turning to `O=C(CC1C(=O)Nc2ccccc2N1S(=O)(=O)c1ccc(Cl)c(Cl)c1)NC1CCC(C(c2ccccc2)N2CCOCC2)CC1` (stereo not drawn) [Example 54, 2-[1-(3,4-dichloro-benzenesulfonyl)-3-oxo-1,2,3,4-tetrahydro-quinoxalin-2-yl]-N-[4-(morpholin-4-yl-phenyl-methyl)-cyclohexyl]-acetamide], the inhibition at 10 µM turned out to be 44% in assay [1] and 105% in assay [3]. For the same compound, the inhibition at 1 µM in assay [2] came to 12%.
As for `O=C1NCCN(S(=O)(=O)c2ccc(Cl)cc2Cl)C1CC(=O)N1CCCCC1C(Cc1ccccc1)N1CCOCC1` (stereo not drawn) [Example 63, 4-(2,4-dichlorophenylsulfonyl)-3-(2-(2-(1-morpholino-2-phenylethyl)piperidin-1-yl)-2-oxoethyl)piperazin-2-one], the figures for the inhibition at 10 µM in assay [1] and in assay [3] were -3% and 28.6%, respectively. Besides, the inhibition at 1 µM in assay [2] is 47%.
In the case of `O=C(CC1C(=O)NCCN1S(=O)(=O)c1ccc(Cl)cc1Cl)NC1CCC(C(c2ccccc2)N2CCOCC2)CC1` (stereo not drawn) [Example 101, 2-(1-(2,4-dichlorophenylsulfonyl)-3-oxopiperazin-2-yl)-N-(4-(morpholino(phenyl)methyl)cyclohexyl)acetamide], the inhibition at 10 µM in assay [1] turned out to be 31%; in assay [3], 104%. Moreover, in assay [2], the inhibition at 1 µM worked out at 4%.
Regarding `O=C(CC1CCCCN1S(=O)(=O)c1ccc(Cl)c(Cl)c1)NC1CCC(C(c2ccccc2)N2CCOCC2)CC1` (stereo not drawn) [Example 106, 2-(1-(3,4-dichlorophenylsulfonyl)piperidin-2-yl)-N-(4-(morpholino(phenyl)methyl)cyclohexyl)acetamide], the results for the inhibition at 10 µM in assay [1] and in assay [3] were 19% and 48.3%, respectively. Moreover, the inhibition at 1 µM in assay [2] worked out at 21%.
As for `O=C(CC1C(=O)NCCN1S(=O)(=O)c1ccc(Cl)cc1Cl)NC1CCC(C(c2ccccc2)N2CCCC2)CC1` (stereo not drawn) [Example 102, 2-(1-(2,4-dichlorophenylsulfonyl)-3-oxopiperazin-2-yl)-N-(4-(phenyl(pyrrolidin-1-yl)methyl)cyclohexyl)acetamide], the inhibition at 10 µM in assay [1] turned out to be 12%; in assay [3] it was 104%. Moreover, the inhibition at 1 µM in assay [2] was 35%.
On the same counts, the results for `O=C(CC1CCCN1S(=O)(=O)c1ccc(Cl)c(Cl)c1)NC1CCC(C(c2ccccc2)N2CCOCC2)CC1` (stereo not drawn) [Example 104, 2-(1-(3,4-dichlorophenylsulfonyl)pyrrolidin-2-yl)-N-(4-(morpholino(phenyl)methyl)cyclohexyl)acetamide] are 13%, 32.8% and 11%.
In the case of `Cc1cc(S(=O)(=O)N2CCCCC2CCC(=O)N2CCC(C(CCc3ccccc3)N3CCN(C)CC3)CC2)c(C)cc1Cl` (stereo not drawn) [Example 119, 3-(1-(4-chloro-2,5-dimethylphenylsulfonyl)piperidin-2-yl)-1-(4-(1-(4-methyl-piperazin-1-yl)-3-phenylpropyl)piperidin-1-yl)propan-1-one], the inhibition at 10 µM in assay [1] was determined as 97%; in assay [3], 102%. For the same compound, the inhibition at 1 µM in assay [2] was 52%.
With `O=C(CC1C(=O)NCCN1S(=O)(=O)c1ccc(Cl)cc1Cl)NCC1CCC(C(CCc2ccccc2)N2CCCC2)CC1` (stereo not drawn) [Example 57, 2-[1-(2,4-dichloro-benzenesulfonyl)-3-oxo-piperazin-2-yl]-N-[4-(3-phenyl-1-pyrrolidin-1-yl-propyl)-cyclohexylmethyl]-acetamide], the inhibition at 10 µM in assay [1] is 27%; in assay [3] it was 104%. Besides, the inhibition at 1 µM in assay [2] was 25%.
For the compound `O=C(CC1CCCN1S(=O)(=O)c1ccc(Cl)c(Cl)c1)NCC1CCC(C(CCc2ccccc2)N2CCCC2)CC1` (stereo not drawn) [Example 75, 2-[1-(3,4-dichloro-benzenesulfonyl)-pyrrolidin-2-yl]-N-[4-(3-phenyl-1-pyrrolidin-1-yl-propyl)-cyclohexylmethyl]-acetamide], the results for the inhibition at 10 µM in assay [1] and in assay [3] were 2% and 91.7%, respectively. Besides, the inhibition at 1 µM in assay [2] turned out to be 65%.
`O=C(CC1CCCN1S(=O)(=O)c1ccc(Cl)c(Cl)c1)NC1CCC(C(c2ccccc2)N2CCCC2)CC1` (stereo not drawn) [Example 105, 2-(1-(3,4-dichlorophenylsulfonyl)pyrrolidin-2-yl)-N-(4-(phenyl(pyrrolidin-1-yl)methyl)cyclohexyl)acetamide]: the figures for the inhibition at 10 µM in assay [1] and in assay [3] were 24% and 99.5%, respectively. Also, in assay [2], the inhibition at 1 µM worked out at 76%.
For the compound `O=C1Nc2ccccc2N(S(=O)(=O)c2ccc(Cl)c(Cl)c2)C1CC(=O)N1CCC(C(c2ccccc2)N2CCOCC2)CC1` (stereo not drawn) [Example 71, 4-(3,4-dichloro-benzenesulfonyl)-3-{2-[4-(morpholin-4-yl-phenyl-methyl)piperidin-1-yl]-2-oxo-ethyl}-3,4-dihydro-1H-quinoxalin-2-one], the results for the inhibition at 10 µM in assay [1] and in assay [3] were 32% and 104%, respectively. Further, the inhibition at 1 µM in assay [2] is 12%.
The like results for `O=C(CC1CCCCN1S(=O)(=O)c1ccc(Cl)c(Cl)c1)NC1CCC(C(CCc2ccccc2)N2CCCCC2)CC1` (stereo not drawn) [Example 86, 2-[1-(3,4-dichloro-benzenesulfonyl)-piperidin-2-yl]-N-[4-(3-phenyl-1-piperidin-1-yl-propyl)-cyclohexyl]-acetamide] were, in that order, 30%, 101% and 54%.
Turning to “4-(Dimethylaminophenylmethyl)piperidin-1-carboxylic acid {3-[(4-methoxy-2,3,6-trimethylbenzenesulfonyl)methylamino]propyl}amide [Example 4]”, the “B1R antagonism, rat [10 μM] % inhibition” value in assay [1] was found to be 95%. For the same compound, the “μ-Opioid receptor [1 μM] % inhibition” value in assay [2] is recorded as 100%. Besides, the “B1R antagonism, human [10 μM] % inhibition” value in assay [3] is 54.8%.
`O=C(CC1CCCN1S(=O)(=O)c1ccc(Cl)c(Cl)c1)N1CCC(C(Cc2ccccc2)N2CCOCC2)CC1` (stereo not drawn) [Example 81, 2-(1-(3,4-dichlorophenylsulfonyl)pyrrolidin-2-yl)-1-(4-(1-morpholino-2-phenylethyl)piperidin-1-yl)ethanone]: the inhibition at 10 µM in assay [1] was found to be 56%; in assay [3], 65.3%. Besides, the inhibition at 1 µM in assay [2] worked out at 16%.
